# ChEMBL document CHEMBL5518185, “Design, synthesis and antitumor activity of 4-arylamine substituted pyrimidine derivatives as noncovalent EGFR inhibitors overcoming C797S mutation” (Eur J Med Chem, 2024)
# Calls of active or inactive are those of the source. The rule behind the calls is not given here.
# Experiments:
# HCC827 [1] = test: Antiproliferative activity against human HCC827 cells assessed as inhibition of cell growth measured after 72 hrs by MTT assay; format: functional, cell-based; details: HCC827, 72 h
# NCI-H1975 = test: Antiproliferative activity against human NCI-H1975 cells assessed as inhibition of cell growth measured after 72 hrs by MTT assay; format: functional, cell-based; details: NCI-H1975, 72 h
# A549 = test: Antiproliferative activity against human A549 cells assessed as inhibition of cell growth measured after 72 hrs by MTT assay; format: functional, cell-based; details: A549, 72 h
# [2] = target: T1, Epidermal growth factor receptor (Homo sapiens, UniProt P00533); test: Inhibition of wild type EGFR (unknown origin) preincubated for 10 mins followed by substrate addition and measured after 50 mins in presence of ATP by HTRF assay
# T1 sequence (P00533 whole entry): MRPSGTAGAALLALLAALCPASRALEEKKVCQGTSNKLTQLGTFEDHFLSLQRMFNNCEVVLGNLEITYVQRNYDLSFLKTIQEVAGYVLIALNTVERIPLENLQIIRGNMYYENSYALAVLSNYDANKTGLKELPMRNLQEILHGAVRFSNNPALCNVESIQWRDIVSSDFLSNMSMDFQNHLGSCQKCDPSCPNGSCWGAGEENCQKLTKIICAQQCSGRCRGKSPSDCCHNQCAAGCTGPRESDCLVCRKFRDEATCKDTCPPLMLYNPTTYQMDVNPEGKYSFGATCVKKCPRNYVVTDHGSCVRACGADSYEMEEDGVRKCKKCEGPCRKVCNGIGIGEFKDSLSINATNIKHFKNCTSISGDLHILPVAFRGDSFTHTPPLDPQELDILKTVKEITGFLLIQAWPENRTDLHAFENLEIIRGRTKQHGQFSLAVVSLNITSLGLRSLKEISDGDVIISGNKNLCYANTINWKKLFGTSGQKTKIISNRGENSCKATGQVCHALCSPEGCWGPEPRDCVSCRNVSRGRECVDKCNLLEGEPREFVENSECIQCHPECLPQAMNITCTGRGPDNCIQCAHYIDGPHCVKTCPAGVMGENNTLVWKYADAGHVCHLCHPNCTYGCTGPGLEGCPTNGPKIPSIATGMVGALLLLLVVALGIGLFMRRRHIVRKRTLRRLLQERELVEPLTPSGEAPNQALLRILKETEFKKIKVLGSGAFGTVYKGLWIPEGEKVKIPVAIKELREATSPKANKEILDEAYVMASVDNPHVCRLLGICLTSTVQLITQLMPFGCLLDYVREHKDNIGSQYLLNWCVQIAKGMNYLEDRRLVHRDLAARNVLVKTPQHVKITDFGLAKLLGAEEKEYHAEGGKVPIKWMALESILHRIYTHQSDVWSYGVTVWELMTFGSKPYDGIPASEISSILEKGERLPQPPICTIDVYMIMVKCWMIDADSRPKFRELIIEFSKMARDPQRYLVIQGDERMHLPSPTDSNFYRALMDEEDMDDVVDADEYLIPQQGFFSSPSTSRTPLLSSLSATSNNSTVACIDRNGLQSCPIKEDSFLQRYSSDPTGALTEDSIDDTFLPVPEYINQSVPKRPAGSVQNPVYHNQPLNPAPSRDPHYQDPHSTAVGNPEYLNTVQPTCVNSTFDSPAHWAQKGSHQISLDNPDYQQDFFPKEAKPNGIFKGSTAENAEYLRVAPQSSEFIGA
# [3] = target: Epidermal growth factor receptor (Homo sapiens, UniProt P00533, EX19DEL/T790M); test: Inhibition of EGFR Del19/T790M (unknown origin) preincubated for 10 mins followed by substrate addition and measured after 50 mins in presence of ATP by HTRF assay
# [4] = target: Epidermal growth factor receptor (Homo sapiens, UniProt P00533, L858R/T790M); test: Inhibition of EGFR L858R/T790M (unknown origin) preincubated for 10 mins followed by substrate addition and measured after 50 mins in presence of ATP by HTRF assay
# [5] = target: Epidermal growth factor receptor (Homo sapiens, UniProt P00533, C797S/EX19DEL/T790M); test: Inhibition of EGFR Del19/T790M/C797S triple mutant (unknown origin) preincubated for 10 mins followed by substrate addition and measured after 50 mins in presence of ATP by HTRF assay
# Sequence of Epidermal growth factor receptor (Homo sapiens, UniProt P00533, C797S/EX19DEL/T790M) (P00533 whole entry, looked up, stated change not applied): as the sequence (P00533 whole entry) above
# [6] = target: Epidermal growth factor receptor (Homo sapiens, UniProt P00533, C797S/L858R/T790M); test: Inhibition of EGFR L858R/T790M/C797S triple mutant (unknown origin) preincubated for 10 mins followed by substrate addition and measured after 50 mins in presence of ATP by HTRF assay
# Sequence of Epidermal growth factor receptor (Homo sapiens, UniProt P00533, C797S/L858R/T790M) (P00533 25-1210 T790M/C797S/L858R limits assumed): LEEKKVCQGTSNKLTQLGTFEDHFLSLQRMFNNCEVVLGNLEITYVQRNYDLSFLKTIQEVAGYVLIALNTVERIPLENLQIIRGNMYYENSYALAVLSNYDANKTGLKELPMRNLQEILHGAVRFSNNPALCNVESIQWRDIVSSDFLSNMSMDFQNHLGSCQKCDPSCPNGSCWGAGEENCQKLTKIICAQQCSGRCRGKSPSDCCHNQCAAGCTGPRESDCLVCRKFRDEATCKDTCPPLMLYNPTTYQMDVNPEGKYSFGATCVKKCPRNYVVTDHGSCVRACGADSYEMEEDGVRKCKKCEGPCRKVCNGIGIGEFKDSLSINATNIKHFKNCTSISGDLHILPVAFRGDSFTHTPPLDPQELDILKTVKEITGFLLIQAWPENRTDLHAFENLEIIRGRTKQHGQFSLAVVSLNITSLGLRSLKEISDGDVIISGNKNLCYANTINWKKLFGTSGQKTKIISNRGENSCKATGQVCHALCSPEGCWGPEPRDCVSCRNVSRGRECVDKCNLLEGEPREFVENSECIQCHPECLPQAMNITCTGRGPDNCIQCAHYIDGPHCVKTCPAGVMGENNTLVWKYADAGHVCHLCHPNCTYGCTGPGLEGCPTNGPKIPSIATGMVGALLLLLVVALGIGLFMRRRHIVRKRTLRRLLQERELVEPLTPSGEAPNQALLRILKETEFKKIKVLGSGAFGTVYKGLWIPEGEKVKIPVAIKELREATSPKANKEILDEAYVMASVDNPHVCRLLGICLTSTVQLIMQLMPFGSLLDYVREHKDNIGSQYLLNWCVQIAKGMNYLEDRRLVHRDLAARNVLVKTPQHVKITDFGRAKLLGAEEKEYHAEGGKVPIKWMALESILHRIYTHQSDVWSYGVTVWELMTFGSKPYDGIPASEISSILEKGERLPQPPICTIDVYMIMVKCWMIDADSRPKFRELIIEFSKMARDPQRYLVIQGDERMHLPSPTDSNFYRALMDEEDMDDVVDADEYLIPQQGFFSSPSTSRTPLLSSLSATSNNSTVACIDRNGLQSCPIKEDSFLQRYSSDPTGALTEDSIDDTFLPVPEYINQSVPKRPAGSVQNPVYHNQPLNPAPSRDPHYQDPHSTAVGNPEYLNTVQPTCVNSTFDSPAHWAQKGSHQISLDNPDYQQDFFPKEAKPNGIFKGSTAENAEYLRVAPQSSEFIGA
# [7] = target: T1, Epidermal growth factor receptor; test: Inhibition of wild type EGFR (unknown origin) at 100 nM preincubated for 10 mins followed by substrate addition and measured after 50 mins in presence of ATP by HTRF assay relative to control; details: time 60.0 min
# [8] = target: Tyrosine-protein kinase ABL1 (Homo sapiens) (UniProt P00519); test: Inhibition of Abl (unknown origin) by HTRF assay relative to control; details: concentration not given here
# Homo sapiens [9] = species on record: Homo sapiens; test: Inhibition of Akt (unknown origin) by HTRF assay relative to control; details: concentration not given here
# [10] = target: Tyrosine-protein kinase BTK (Homo sapiens) (UniProt Q06187); test: Inhibition of BTK (unknown origin) by HTRF assay relative to control; details: concentration not given here
# [11] = target: Mast/stem cell growth factor receptor Kit (Homo sapiens) (UniProt P10721); test: Inhibition of c-kit (unknown origin) by HTRF assay relative to control; details: concentration not given here
# Homo sapiens [12] = species on record: Homo sapiens; test: Inhibition of FGFR (unknown origin) by HTRF assay relative to control; details: concentration not given here
# [13] = target: Insulin-like growth factor 1 receptor (Homo sapiens) (UniProt P08069); test: Inhibition of IGF-1R (unknown origin) by HTRF assay relative to control; details: concentration not given here
# [14] = target: Dual specificity mitogen-activated protein kinase kinase; MEK1/2 (Homo sapiens) (UniProt P36507+Q02750); test: Inhibition of MEK1/2 (unknown origin) by HTRF assay relative to control; format: protein assay; details: concentration not given here
# [15] = target: Serine/threonine-protein kinase mTOR (Homo sapiens) (UniProt P42345); test: Inhibition of mTOR (unknown origin) by HTRF assay relative to control; details: concentration not given here
# [16] = target: Platelet-derived growth factor receptor alpha (Homo sapiens) (UniProt P16234); test: Inhibition of PDGFR alpha (unknown origin) by HTRF assay relative to control; details: concentration not given here
# [17] = target: RAF proto-oncogene serine/threonine-protein kinase (Homo sapiens) (UniProt P04049); test: Inhibition of c-RAF (unknown origin) by HTRF assay relative to control; details: concentration not given here
# [18] = target: Proto-oncogene tyrosine-protein kinase ROS (Homo sapiens) (UniProt P08922); test: Inhibition of ROS (unknown origin) by HTRF assay relative to control; details: concentration not given here
# [19] = target: Proto-oncogene tyrosine-protein kinase Src (Homo sapiens) (UniProt P12931); test: Inhibition of Src (unknown origin) by HTRF assay relative to control; details: concentration not given here
# Homo sapiens [20] = species on record: Homo sapiens; test: Inhibition of VGFR (unknown origin) by HTRF assay relative to control; details: concentration not given here
# [21] = Cytotoxicity against human 2BS cells assessed as inhibition of cell viability measured after 72 hrs by MTT assay; format: toxicity, cell-based
# [22] = Cytotoxicity against human L02 cells assessed as inhibition of cell viability measured after 72 hrs by MTT assay; format: toxicity, cell-based
# HCC827 [23] = test: Inhibition of colony formation in human HCC827 cells at 10 to 100 nM measured after 14 days by crystal violet staining based analysis; format: functional, cell-based; details: dose 10-100 nM, time 14.0 day
# HCC827 [24] = test: Induction of cell cycle arrest in human HCC827 cells assessed as accumulation of cells at G0/G1 phase at 10 nM measured after 24 hrs by PI staining based flow cytometry analysis (reference value: 54.36%); format: functional
# HCC827 [25] = test: Induction of cell cycle arrest in human HCC827 cells assessed as accumulation of cells at G0/G1 phase at 30 nM measured after 24 hrs by PI staining based flow cytometry analysis (reference value: 54.36%); format: functional
# HCC827 [26] = test: Induction of cell cycle arrest in human HCC827 cells assessed as accumulation of cells at G0/G1 phase at 100 nM measured after 24 hrs by PI staining based flow cytometry analysis (reference value: 54.36%); format: functional
# HCC827 [27] = test: Induction of cell cycle arrest in human HCC827 cells assessed as accumulation of cells at S phase at 10 nM measured after 24 hrs by PI staining based flow cytometry analysis (reference value: 28.81%); format: functional
# HCC827 [28] = test: Induction of cell cycle arrest in human HCC827 cells assessed as accumulation of cells at S phase at 30 nM measured after 24 hrs by PI staining based flow cytometry analysis (reference value: 28.81%); format: functional
# HCC827 [29] = test: Induction of cell cycle arrest in human HCC827 cells assessed as accumulation of cells at S phase at 100 nM measured after 24 hrs by PI staining based flow cytometry analysis (reference value: 28.81%); format: functional
# HCC827 [30] = test: Induction of cell cycle arrest in human HCC827 cells assessed as accumulation of cells at G2/M phase at 10 nM measured after 24 hrs by PI staining based flow cytometry analysis (reference value: 16.83%); format: functional
# HCC827 [31] = test: Induction of cell cycle arrest in human HCC827 cells assessed as accumulation of cells at G2/M phase at 30 nM measured after 24 hrs by PI staining based flow cytometry analysis (reference value: 16.83%); format: functional
# HCC827 [32] = test: Induction of cell cycle arrest in human HCC827 cells assessed as accumulation of cells at G2/M phase at 100 nM measured after 24 hrs by PI staining based flow cytometry analysis (reference value: 16.83%); format: functional
# [33] = test system: Epidermal growth factor receptor (Homo sapiens), P00533 [UNDEFINED MUTATION]; details: dose 100.0 nM
# Sequence of Epidermal growth factor receptor (Homo sapiens), P00533 [UNDEFINED MUTATION] (P00533 whole entry, looked up, change not shown): as the sequence (P00533 whole entry) above
# [34] = test system: Epidermal growth factor receptor (Homo sapiens), P00533 [UNDEFINED MUTATION]; details: dose 30.0 nM
# [35] = Inhibition of ERK (unknown origin) by HTRF assay relative to control; details: Homo sapiens; concentration not given here
smiles,measurement,setting,value
O=C(NO)c1ccsc1Nc1nc(Nc2ccc(N3CCOCC3)cc2)ncc1Cl,IC50,HCC827 [1],0.031 µM
same,IC50,NCI-H1975,0.135 µM
same,IC50,A549,0.23 µM
same,IC50,[2],0.0344 µM
same,IC50,[3],0.897 µM
same,IC50,[4],0.0723 µM
same,IC50,[5],0.0379 µM
same,IC50,[6],0.0267 µM
same,inhibition,[7],83.6%
same,inhibition,[8],< 70%
same,inhibition,Homo sapiens [9],< 70%
same,inhibition,[10],< 70%
same,inhibition,[11],< 70%
same,inhibition,Homo sapiens [12],< 70%
same,inhibition,[13],< 70%
same,inhibition,[14],< 70%
same,inhibition,[15],< 70%
same,inhibition,[16],< 70%
same,inhibition,[17],< 70%
same,inhibition,[18],< 70%
same,inhibition,[19],< 70%
same,inhibition,Homo sapiens [20],< 70%
same,IC50 at 72 h,[21],15.2 µM
same,IC50 at 72 h,[22],5.03 µM
same,inhibition,HCC827 [23],Active
same,Activity,HCC827 [24],64.32%
same,Activity,HCC827 [25],65.79%
same,Activity,HCC827 [26],59.28%
same,Activity,HCC827 [27],20.21%
same,Activity,HCC827 [28],14.08%
same,Activity,HCC827 [29],15.6%
same,Activity,HCC827 [30],15.47%
same,Activity,HCC827 [31],20.13%
same,Activity,HCC827 [32],25.12%
same,inhibition,[33],73.3%
same,inhibition,[34],47.8%
same,inhibition,[35],< 70%
